Experimental data published in PubChem BioAssay AID1259407 (Chemical Carcinogenesis Research Information System (CCRIS), 2018).
Activity calls are given as the source filed them. The rule behind the calls is not given here.

Test system: CCRIS mutagenicity, Ames/micronucleus/aberration tests
Assay: CCRIS mutagenicity studies
[1] = Test System: AMES SALMONELLA TYPHIMURIUM, Strain/Indicator: TA98, Metabolic Activation: NONE, Method: STANDARD PLATE
[2] = Test System: AMES SALMONELLA TYPHIMURIUM, Strain/Indicator: TA98, Metabolic Activation: RAT, LIVER, S-9, AROCLOR 1254, Method: STANDARD PLATE
[3] = Test System: AMES SALMONELLA TYPHIMURIUM, Strain/Indicator: TA100, Metabolic Activation: NONE, Method: STANDARD PLATE
[4] = Test System: AMES SALMONELLA TYPHIMURIUM, Strain/Indicator: TA100, Metabolic Activation: RAT, LIVER, S-9, AROCLOR 1254, Method: STANDARD PLATE
[5] = Test System: AMES SALMONELLA TYPHIMURIUM, Strain/Indicator: TA1535, Metabolic Activation: NONE, Method: STANDARD PLATE
[6] = Test System: AMES SALMONELLA TYPHIMURIUM, Strain/Indicator: TA1535, Metabolic Activation: RAT, LIVER, S-9, AROCLOR 1254, Method: STANDARD PLATE
[7] = Test System: AMES SALMONELLA TYPHIMURIUM, Strain/Indicator: TA1537, Metabolic Activation: NONE, Method: STANDARD PLATE
[8] = Test System: AMES SALMONELLA TYPHIMURIUM, Strain/Indicator: TA1537, Metabolic Activation: RAT, LIVER, S-9, AROCLOR 1254, Method: STANDARD PLATE
[9] = Test System: AMES SALMONELLA TYPHIMURIUM, Strain/Indicator: TA98, Metabolic Activation: NONE, Method: PREINCUBATION
[10] = Test System: AMES SALMONELLA TYPHIMURIUM, Strain/Indicator: TA100, Metabolic Activation: NONE, Method: PREINCUBATION
[11] = Test System: AMES SALMONELLA TYPHIMURIUM, Strain/Indicator: TA1535, Metabolic Activation: NONE, Method: PREINCUBATION
[12] = Test System: AMES SALMONELLA TYPHIMURIUM, Strain/Indicator: TA1537, Metabolic Activation: NONE, Method: PREINCUBATION

Compound	mutagenic call [1]	mutagenic call [2]	mutagenic call [3]	mutagenic call [4]	mutagenic call [5]	mutagenic call [6]	mutagenic call [7]	mutagenic call [8]	mutagenic call [9]	mutagenic call [10]	mutagenic call [11]	mutagenic call [12]	further results
NC(=O)CCC(=O)Nc1cc(Cl)c(Cl)c(Cl)c1	inactive; negative	inactive; negative	inactive; negative	inactive; negative									
O=C(O)c1ccccn1	inactive; negative	inactive; negative	inactive; negative	inactive; negative	inactive; negative	inactive; negative	inactive; negative	inactive; negative					mutagenic call (Test System: AMES SALMONELLA TYPHIMURIUM, Strain/Indicator: TA98, Metabolic Activation: HAMSTER, LIVER, S-9, AROCLOR 1254, Method: STANDARD PLATE): inactive; negative; mutagenic call (Test System: AMES SALMONELLA TYPHIMURIUM, Strain/Indicator: TA100, Metabolic Activation: HAMSTER, LIVER, S-9, AROCLOR 1254, Method: STANDARD PLATE): inactive; negative; mutagenic call (Test System: AMES SALMONELLA TYPHIMURIUM, Strain/Indicator: TA1535, Metabolic Activation: HAMSTER, LIVER, S-9, AROCLOR 1254, Method: STANDARD PLATE): inactive; negative; mutagenic call (Test System: AMES SALMONELLA TYPHIMURIUM, Strain/Indicator: TA1537, Metabolic Activation: HAMSTER, LIVER, S-9, AROCLOR 1254, Method: STANDARD PLATE): inactive; negative; mutagenic call (Test System: CHINESE HAMSTER OVARY CELLS, Strain/Indicator: CHO CELLS (HPRT)/6-THIOGUANINE, Metabolic Activation: NONE, Method: STANDARD PLATE): inactive; negative; mutagenic call (Test System: MOUSE LYMPHOMA CELLS, Strain/Indicator: L5178Y TK+/-, Metabolic Activation: NONE, Method: TFT RESISTANCE): inactive; negative; mutagenic call (Test System: MOUSE LYMPHOMA CELLS, Strain/Indicator: L5178Y TK+/-, Metabolic Activation: RAT, LIVER, S-9, AROCLOR 1254, Method: TFT RESISTANCE): inactive; negative; mutagenic call (Test System: MOUSE LYMPHOMA, Strain/Indicator: L5178Y (TK+/TK-), Metabolic Activation: NONE, Method: SUSPENSION/PLATE): active; positive. reevaluation of results: equivocal; mutagenic call (Test System: MOUSE LYMPHOMA, Strain/Indicator: L5178Y (TK+/TK-), Metabolic Activation: RAT, LIVER, S-9, AROCLOR 1254, Method: SUSPENSION/PLATE): active; positive. reevaluation of results: equivocal
CCc1c(Br)c(Br)c(Br)c(Br)c1Br									inactive; negative	inactive; negative	inactive; negative	inactive; negative	mutagenic call (Test System: AMES SALMONELLA TYPHIMURIUM, Strain/Indicator: TA98, Metabolic Activation: HAMSTER, LIVER, S-9, AROCLOR 1254 (10%), Method: PREINCUBATION): inactive; negative; mutagenic call (Test System: AMES SALMONELLA TYPHIMURIUM, Strain/Indicator: TA98, Metabolic Activation: RAT, LIVER, S-9, AROCLOR 1254 (10%), Method: PREINCUBATION): inactive; negative; mutagenic call (Test System: AMES SALMONELLA TYPHIMURIUM, Strain/Indicator: TA100, Metabolic Activation: HAMSTER, LIVER, S-9, AROCLOR 1254 (10%), Method: PREINCUBATION): inactive; negative; mutagenic call (Test System: AMES SALMONELLA TYPHIMURIUM, Strain/Indicator: TA100, Metabolic Activation: RAT, LIVER, S-9, AROCLOR 1254 (10%), Method: PREINCUBATION): inactive; negative; mutagenic call (Test System: AMES SALMONELLA TYPHIMURIUM, Strain/Indicator: TA1535, Metabolic Activation: HAMSTER, LIVER, S-9, AROCLOR 1254 (10%), Method: PREINCUBATION): inactive; negative; mutagenic call (Test System: AMES SALMONELLA TYPHIMURIUM, Strain/Indicator: TA1535, Metabolic Activation: RAT, LIVER, S-9, AROCLOR 1254 (10%), Method: PREINCUBATION): inactive; negative; mutagenic call (Test System: AMES SALMONELLA TYPHIMURIUM, Strain/Indicator: TA1537, Metabolic Activation: HAMSTER, LIVER, S-9, AROCLOR 1254 (10%), Method: PREINCUBATION): inactive; negative; mutagenic call (Test System: AMES SALMONELLA TYPHIMURIUM, Strain/Indicator: TA1537, Metabolic Activation: RAT, LIVER, S-9, AROCLOR 1254 (10%), Method: PREINCUBATION): inactive; negative
CC1(C)C2CC3OC3(C)C1C2 (stereo not drawn)			inactive; negative	inactive; negative	inactive; negative	inactive; negative							mutagenic call (Test System: UDS RAT HEPATOCYTES, Strain/Indicator: THY INCORP, Metabolic Activation: NONE): inactive; negative
CCCCCCCC/C=C\CCCCCCCCN (tested in a mixture with another compound)	inactive; negative	active; positive	inactive; negative	inactive; negative	inactive; negative	inactive; negative	inactive; negative	inactive; negative					mutagenic call (Test System: AMES SALMONELLA TYPHIMURIUM, Strain/Indicator: TA1538, Metabolic Activation: NONE, Method: STANDARD PLATE): inactive; negative; mutagenic call (Test System: AMES SALMONELLA TYPHIMURIUM, Strain/Indicator: TA1538, Metabolic Activation: RAT, LIVER, S-9, AROCLOR 1254, Method: STANDARD PLATE): active; positive
Clc1cccc(Cl)c1	inactive; negative		inactive; negative						inactive; negative	inactive; negative	inactive; negative	inactive; negative	mutagenic call (Test System: AMES SALMONELLA TYPHIMURIUM, Strain/Indicator: TA98, Metabolic Activation: HAMSTER, LIVER, S-9, AROCLOR 1254, Method: PREINCUBATION): inactive; negative; mutagenic call (Test System: AMES SALMONELLA TYPHIMURIUM, Strain/Indicator: TA98, Metabolic Activation: RAT, LIVER, S-9, AROCLOR 1254, Method: PREINCUBATION): inactive; negative; mutagenic call (Test System: AMES SALMONELLA TYPHIMURIUM, Strain/Indicator: TA98, Metabolic Activation: RAT, LIVER, S-9, AROCLOR, Method: STANDARD PLATE): inactive; negative; mutagenic call (Test System: AMES SALMONELLA TYPHIMURIUM, Strain/Indicator: TA100, Metabolic Activation: HAMSTER, LIVER, S-9, AROCLOR 1254, Method: PREINCUBATION): inactive; negative; mutagenic call (Test System: AMES SALMONELLA TYPHIMURIUM, Strain/Indicator: TA100, Metabolic Activation: RAT, LIVER, S-9, AROCLOR 1254, Method: PREINCUBATION): inactive; negative; mutagenic call (Test System: AMES SALMONELLA TYPHIMURIUM, Strain/Indicator: TA100, Metabolic Activation: RAT, LIVER, S-9, AROCLOR, Method: STANDARD PLATE): inactive; negative; mutagenic call (Test System: AMES SALMONELLA TYPHIMURIUM, Strain/Indicator: TA1535, Metabolic Activation: HAMSTER, LIVER, S-9, AROCLOR 1254, Method: PREINCUBATION): inactive; negative; mutagenic call (Test System: AMES SALMONELLA TYPHIMURIUM, Strain/Indicator: TA1535, Metabolic Activation: RAT, LIVER, S-9, AROCLOR 1254, Method: PREINCUBATION): inactive; negative; mutagenic call (Test System: AMES SALMONELLA TYPHIMURIUM, Strain/Indicator: TA1537, Metabolic Activation: HAMSTER, LIVER, S-9, AROCLOR 1254, Method: PREINCUBATION): inactive; negative; mutagenic call (Test System: AMES SALMONELLA TYPHIMURIUM, Strain/Indicator: TA1537, Metabolic Activation: RAT, LIVER, S-9, AROCLOR 1254, Method: PREINCUBATION): inactive; negative; mutagenic call (Test System: AMES SALMONELLA TYPHIMURIUM, Strain/Indicator: UTH8413, Metabolic Activation: NONE, Method: STANDARD PLATE): inactive; negative; mutagenic call (Test System: AMES SALMONELLA TYPHIMURIUM, Strain/Indicator: UTH8413, Metabolic Activation: RAT, LIVER, S-9, AROCLOR, Method: STANDARD PLATE): inactive; negative; mutagenic call (Test System: AMES SALMONELLA TYPHIMURIUM, Strain/Indicator: UTH8414, Metabolic Activation: NONE, Method: STANDARD PLATE): inactive; negative; mutagenic call (Test System: AMES SALMONELLA TYPHIMURIUM, Strain/Indicator: UTH8414, Metabolic Activation: RAT, LIVER, S-9, AROCLOR, Method: STANDARD PLATE): inactive; negative
